The values below come from patent US20080299195A1, “USE OF RANOLAZINE FOR ELEVATED BRAIN-TYPE NATRIURETIC PEPTIDE” (priority 2007, published 2008).

The test system of this assay is patients with non-ST elevation ACS. Description: MERLIN-TIMI 36 trial: randomized, double-blind, placebo-controlled trial of ranolazine, stratified by baseline BNP. The assay is classed as in vivo, human. The conditions noted are these: ranolazine vs placebo. The text has this:
Ranolazine is believed to exert anti-ischemic effects through a reduction in myocardial cellular sodium and calcium overload with a consequent reduction in wall stress. B-type natriuretic peptide (BNP) is released in response to increased wall stress and is a potent indicator of risk in acute coronary syndromes (ACS). This study was a prospective evaluation of the interaction between BNP and the effect of ranolazine as part of a randomized, double-blind, placebo-controlled trial.
Patients with a non-ST elevation acute coronary syndrome (NSTEACS), refers to patients with chest discomfort or anginal equivalent occurring at rest, lasting ≧10 minutes, and consistent with myocardial ischemia, and the presence of ischemic symptoms (≧5 minutes) at rest within 48 hours of admittance which may include index episode, and having at least one of the following indicators of moderate-high risk: • Elevated cardiac troponin (above local MI limit) or CK-MB (>ULN) • ST-depression (horizontal or down-sloping) >0.1 mV • Diabetes mellitus (requiring insulin or oral therapy) • A Risk Score of >3 wherein one point is assigned for each of the following variables and a total score calculated as the arithmetic sum: • Age >65 years; • Known CAD (prior MI, CABG, PCI or angiographic stenosis ≧50%); • Three or more cardiac risk factors (DM, elevated cholesterol, hypertension, family history); • More than one episode of ischemic discomfort at rest in the prior 24 hours; • Chronic aspirin use in the 7 days preceding onset of symptoms; • ST segment depression ≧0.05 mV; and • Elevated cardiac troponin or CK-MB.
Plasma BNP were measured (ADVIA® BNP) at baseline (N=4543), 14 days (N=4079), and the Final Visit (N=3328) of the patients with non-ST elevation ACS randomized to ranolazine or placebo in the MERLIN-TIMI 36 trial. During the trial 200 mg of ranolazine (or matching placebo) was administered intravenously over 1 hour, followed by an 80 mg/hr intravenous infusion, which was reduced to 40 mg/hr for patients with an estimated creatinine clearance of less than […] (<0.50 mL/s), and was continued for 12 to 96 hours. On or near the completion (about 1 hour before completion) of the infusion, transition from the IV solution to ranolazine extended release (or matching placebo) occurred and ranolazine extended release (or matching placebo) continued orally at a dose of 1000 mg twice daily until the end of the study. [Morrow, et al., J. Am. Med. Assoc'n. 297 (16), 1775-1783, 2007]. Patients were stratified using BNP >80 pg/mL based upon prior work with this assay. The primary endpoint of the trial was a composite of cardiovascular death, myocardial infarction, or recurrent ischemia (CVD/MI/RI).

On to `COc1ccccc1OCC(O)CN1CCN(CC(=O)Nc2c(C)cccc2C)CC1` (racemic) [ranolazine, (±)-N-(2,6-dimethylphenyl)-4-[2-hydroxy-3-(2-methoxyphenoxy)propyl]-1-piperazine-acetamide], for which the “HR for endpoint component of worsening angina” value by setting is: (patients with BNP>80 pg/mL, CI 0.35-0.84, p=0.005) 0.55; (95% CI 0.63-1.28, p=0.55, p-interaction 0.079) 0.90. Further, for the setting “patients with BNP>80 pg/mL, IV 200 mg over 1 h, then 80 mg/hr for 12 to 96 hours, then extended release 1000 mg twice daily orally, 95% CI 0.66-0.94, p=0.009”, the “HR for primary endpoint (composite of cardiovascular death, myocardial infarction, or recurrent ischemia, CVD/MI/RI)” value stood at 0.79. For the same compound, the “effect on primary endpoint (CVD/MI/RI)” value (patients with a negative BNP result, p-interaction=0.052) was “lack of detectable effect”.
